Laboratory results reported in patent US20020016369A1, “Use of nimesulide for the treatment of psoriasis and psoriatic arhtritis” (priority 2000, published 2002).

Tested on: patients affected by psoriatic arthritis
Procedure: Controlled double-blind clinical trials were carried out on patients 18 to 70 years old affected by psoriatic arthritis showing at least three swollen joints, absence of rheumatoid factor and no other rheumatic conditions.
The patients, who received no previous pharmacological treatment with antirheumatic drugs during the three-month pre-study period, were treated for 4 weeks with Nimesulide (100 to 400 mg/day orally or application of a 3% gel twice a day).
At the end of the treatment period, the following parameters were evaluated:
number of tender and swollen joints
skin symptoms evaluated according to the Psoriasis Area Severity Index (PASI)

[1] = patients 18 to 70 years old, 4 weeks, 100 to 400 mg/day orally or 3% gel twice a day

SMILES: CS(=O)(=O)Nc1ccc([N+](=O)[O-])cc1Oc1ccccc1 [Nimesulide]
- action on joint flogosis (general statement of finding): beneficial action on joint flogosis
- effect on skin lesions (general statement of finding): remarkable improvement of such lesions
- clinical efficacy in oligopolyarticular psoriatic arthritis [1]: clinically effective in the treatment of oligopolyarticular psoriatic arthritis in a statistically significant way
- toxic or untoward effects (tolerability) [1]: no toxic or untoward effect, particularly no gastrointestinal adverse effect
